Test results published in patent publication US20260258084A1, “New Peptides as Selective IL-23 Receptor Antagonists” (Sanofi, priority 2022, published 2026).
Values after ≈ are worked out from the molar mass of the structure shown. Where two headings read alike, the source gives them in different places. Starred links: 1 amine or outer side, 2 acyl side, 3 side chain; linkers in the order of their positions; H or OH if unused. Positions of bridges follow the written chain, without caps; N, C: chain ends. Non-standard residues stand in square brackets, D forms with d. Residues, ends and D or L forms follow the SMILES beside them. *: point of attachment. X3 = CN(CCCCC(=O)N[C@@H](CS[*:2])C(=O)[*:1])[*:3]; Trp(7-Me) = Cc1cccc2c(C[C@H](N)C(=O)O)c[nH]c12; 2Nal = N[C@@H](Cc1ccc2ccccc2c1)C(=O)O; AEF = NCCOc1ccc(C[C@H](N)C(=O)O)cc1; αMeL = CC(C)C[C@](C)(N)C(=O)O; Suc = O=C(CCC(=O)[*:2])[*:1]; Thp = NC1(C(=O)O)CCOCC1; Me2NCH2CH2 = CN(C)CC*; Aib = CC(C)(N)C(=O)O; Ava = NCCCCC(=O)O; βAla = NCCC(=O)O; Sar = CNCC(=O)O

Tests used:
[1] = target: T1, human interleukin-23 receptor (recombinant human IL-23R-Fc chimera) (Homo sapiens, UniProt Q5VWK5); assay: Human ELISA IL23/IL23R (assay for specific human IL23R antagonists); type: binding; conditions: Table 10; read-out: Human ELISA IL23/IL23R IC50
T1 construct: Fc (IgG Fc fusion)
In short: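 Plates coated overnight at 4 °C with human IL23 ([…]), blocked, then serially diluted peptides added with recombinant human IL-23R-Fc (0.1 μg/ml final) for 60 min at room temperature. Bound receptor detected with anti-human IgG1-HRP and fluorogenic peroxidase substrate.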

Pepsin = test system: T2, Pepsin; assay: Protease stability in simulated gastric fluid (Pepsin-SGF, FaSSGF); type: in vitro ADME; conditions: simulated gastric fluid with pepsin (Pepsin-SGF), 60 min, 1 μM peptide, 37° C., read-out: FaSSGF 60 (min), remaining percent of peptide
T2 construct: purchased Merck Millipore
In short: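 Peptides at 1 μM final in pepsin-containing SGF at 37° C, sampled at 0, 60, 120 and 240 min, quenched with ethanol (0.1% HCOOH). Analysed by LCMS/MS; percent remaining from peak area relative to time 0 (set to 100%).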

[2] = Solubility testing of peptides at different pH; type: physicochemical; conditions: target concentration 1 mg/ml, 2 hours agitation
In short: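 Solid obtained by drying down DMSO stock was taken up at 1 mg/mL in 50 mM HCl pH 1.2 or 50 mM phosphate pH 6.5, 7.4 or 9.0, agitated gently for 2 h, then filtered (0.45 μm). Solubility by UPLC-UV peak area against a DMSO reference standard curve, corrected for extinction coefficients.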

[3] = test system: IL-23 induced STAT3 signaling in HEK-Blue™ IL-23 cells; assay: IL-23 induced STAT3 signaling in HEK-Blue IL-23 cells (SEAP reporter); type: cell-based; conditions: human IL23 0.25 ng/ml, read-out: pSTAT3
In short: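 HEK-Blue IL-23 cells (10,000/well) pre-incubated 60 min at 37 °C with serially diluted peptides, then stimulated overnight with human IL-23 (0.25 ng/ml final). STAT3-driven SEAP in supernatant detected with QUANTI-Blue after 45 min at RT (OD 620-655 nm); dose-response curves fitted.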

[4] = Chemical stability assessment of peptides (relative purity loss); type: physicochemical; conditions: 24 hours at 37° C.; for Chemical stability (relative purity loss) Buffer pH 1.2: 50 mM HCl pH 1.2 + acetonitrile (1:1); for Chemical stability (relative purity loss) Buffer pH 6.5: 50 mM phosphate buffer pH 6.5 + acetonitrile (1:1); for Chemical stability (relative purity loss) Buffer pH 7.4: 50 mM phosphate buffer pH 7.4 + acetonitrile (1:1)
In short: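 Peptide solutions at 1 mg/ml (purity-corrected) in 1:1 acetonitrile with 50 mM HCl pH 1.2, or 50 mM phosphate pH 6.5 or pH 7.4, held 24 hours at 2° C. and 37° C. Supernatants analysed by UHPLC-UV; relative purity loss taken as percent drop in peak-area purity from 0 to 24 hours at 37° C.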

[5] = 50 mM HCl buffer, 50 mM HCl pH 1.2, read-out: Solubility Buffer pH 1.2
[6] = 50 mM phosphate buffer pH 6.5, read-out: Solubility Buffer pH 6.5
[7] = 50 mM phosphate buffer pH 7.4, read-out: Solubility Buffer pH 7.4
[8] = 50 mM phosphate buffer pH 9.0, read-out: Solubility Buffer pH 9.0

Compound	IC50 [1]	remaining at 1 h, 1 µM (Pepsin)	solubility at 2 h [2, 5]	solubility at 2 h [2, 6]	solubility at 2 h [2, 7]	solubility at 2 h [2, 8]	IC50 [3]	Chemical stability (relative purity loss) Buffer pH 1.2 [4]	Chemical stability (relative purity loss) Buffer pH 6.5 [4]	Chemical stability (relative purity loss) Buffer pH 7.4 [4]
CC(=O)N[C@H]1CCCCNC(=O)[C@@H]2CSSC[C@H](NC(=O)[C@H](CCC(N)=O)NC(=O)[C@H](Cc3c[nH]c4ccccc34)NC1=O)C(=O)N[C@@H](Cc1ccc(OCCN)cc1)C(=O)N[C@@H](Cc1ccc3ccccc3c1)C(=O)NC1(CCOCC1)C(=O)N[C@H](C(=O)N[C@@H](C)C(=O)NCC(N)=O)CCC(=O)N(C)CCCCC(=O)N2 [compound 17] (Ac-KWQC[AEF][2Nal][Thp]EAG-NH2; linker 1-4-8 via X3)	0.28 nM	71%	≥ 1030 µg/mL	≥ 1000 µg/mL	≥ 970 µg/mL	≥ 880 µg/mL	62 nM	5.6%	0.0%	0.0%
CC(=O)NCCCC[C@@H]1NC(=O)[C@H](Cc2c[nH]c3c(C)cccc23)NC(=O)[C@H]([C@@H](C)O)NC(=O)[C@H](CC(N)=O)NC(=O)[C@@H]2CSSC[C@H](NC1=O)C(=O)N[C@@H](Cc1ccc(OCCN(C)C)cc1)C(=O)N[C@@H](Cc1ccc3ccccc3c1)C(=O)N[C@@](C)(CC(C)C)C(=O)N[C@H](C(=O)N[C@@H](CC(N)=O)C(=O)N[C@@H](Cc1c[nH]cn1)C(=O)NCCC(N)=O)CCC(=O)NCCCCC(=O)N2 [compound 50] ([Ava]CNT[Trp(7-Me)]K(Ac)CY(Me2NCH2CH2)[2Nal][αMeL]ENH[βAla]-NH2; disulfide 2-7; lactam N-11)	0.29 nM	99%	≥ 1000 µg/mL	≥ 980 µg/mL	670 µg/mL (≈ 353 µM)	440 µg/mL (≈ 232 µM)	0.98 nM	13.0%	0.7%	1.5%
CC(=O)N[C@H]1CCCCNC(=O)[C@@H]2CSSC[C@H](NC(=O)[C@H](CCC(N)=O)NC(=O)[C@H](Cc3c[nH]c4ccccc34)NC1=O)C(=O)N[C@@H](Cc1ccc(OCCN)cc1)C(=O)N[C@@H](Cc1ccc3ccccc3c1)C(=O)NC(C)(C)C(=O)N[C@H](C(=O)N[C@@H](C)C(=O)N[C@H](CC(C)C)C(N)=O)CCC(=O)N(C)CCCCC(=O)N2 [compound 19] (Ac-KWQC[AEF][2Nal][Aib]EA[dL]-NH2; linker 1-4-8 via X3)	0.74 nM	79%	10 µg/mL (≈ 6.24 µM)	20 µg/mL (≈ 12.5 µM)	< 10 µg/mL	< 10 µg/mL	88.3 nM	7.9%	0.0%	0.0%
CC(=O)N[C@H]1CCCCNC(=O)[C@@H]2CSSC[C@H](NC(=O)[C@H](CCC(N)=O)NC(=O)[C@H](Cc3c[nH]c4ccccc34)NC1=O)C(=O)N[C@@H](Cc1ccc(OCCN)cc1)C(=O)N[C@@H](Cc1ccc3ccccc3c1)C(=O)NC1(CCOCC1)C(=O)N[C@H](C(=O)N[C@@H](CC(N)=O)C(=O)N[C@@H](CC(N)=O)C(N)=O)CCC(=O)N(C)CCCCC(=O)N2 [compound 13] (Ac-KWQC[AEF][2Nal][Thp]ENN-NH2; linker 1-4-8 via X3)	0.61 nM	73%	≥ 1050 µg/mL	≥ 1070 µg/mL	770 µg/mL (≈ 456 µM)	≥ 990 µg/mL	32 nM	23.3%	0.2%	1.6%
CC(=O)NCCCC[C@@H]1NC(=O)[C@H](Cc2c[nH]c3c(C)cccc23)NC(=O)[C@H]([C@@H](C)O)NC(=O)[C@H](CC(N)=O)NC(=O)[C@@H]2CSSC[C@H](NC1=O)C(=O)N[C@@H](Cc1ccc(OCCN(C)C)cc1)C(=O)N[C@@H](Cc1ccc3ccccc3c1)C(=O)NC1(CCOCC1)C(=O)N[C@H](C(=O)N[C@@H](CC(N)=O)C(=O)N[C@@H](Cc1c[nH]cn1)C(=O)N(C)CC(N)=O)CCC(=O)NCCCCC(=O)N2 [compound 46] ([Ava]CNT[Trp(7-Me)]K(Ac)CY(Me2NCH2CH2)[2Nal][Thp]ENH[Sar]-NH2; disulfide 2-7; lactam N-11)	0.36 nM	100%	≥ 1080 µg/mL	≥ 1060 µg/mL	≥ 1060 µg/mL	≥ 1030 µg/mL	0.84 nM	9.9%	1.9%	1.8%
CC(=O)NCCCC[C@@H]1NC(=O)[C@H](Cc2c[nH]c3c(C)cccc23)NC(=O)[C@H]([C@@H](C)O)NC(=O)[C@H](CC(N)=O)NC(=O)[C@@H]2CSSC[C@H](NC1=O)C(=O)N[C@@H](Cc1ccc(OCCN(C)C)cc1)C(=O)N[C@@H](Cc1ccc3ccccc3c1)C(=O)N[C@@](C)(CC(C)C)C(=O)N[C@H](C(=O)N[C@@H](CC(N)=O)C(=O)N[C@@H](Cc1c[nH]cn1)C(N)=O)CCCCNC(=O)CCC(=O)N2 [compound 23] (CNT[Trp(7-Me)]K(Ac)CY(Me2NCH2CH2)[2Nal][αMeL]KNH-NH2; disulfide 1-6; linker N-10 via Suc)	0.26 nM	69%	≥ 970 µg/mL	980 µg/mL (≈ 536 µM)	210 µg/mL (≈ 115 µM)	60 µg/mL (≈ 32.8 µM)	3.32 nM	11.3%	0.0%	0.0%
COc1ccc(C[C@@H]2NC(=O)[C@@H]3CSSC[C@H](NC(=O)CCC(=O)NCCCC[C@@H](C(=O)N[C@@H](CC(N)=O)C(=O)N[C@@H](CC(N)=O)C(N)=O)NC(=O)C(C)(C)NC(=O)[C@H](Cc4ccc5ccccc5c4)NC2=O)C(=O)N[C@@H](CC(N)=O)C(=O)N[C@@H]([C@@H](C)O)C(=O)N[C@@H](Cc2c[nH]c4ccccc24)C(=O)N[C@@H](CCC(N)=O)C(=O)N3)cc1 [compound 11]	0.7 nM	2%	120 µg/mL (≈ 72.8 µM)	100 µg/mL (≈ 60.6 µM)	90 µg/mL (≈ 54.6 µM)	80 µg/mL (≈ 48.5 µM)	53.5 nM	25.7%	0.2%	1.0%
CC(C)C[C@@H](NC(=O)[C@H](CC(N)=O)NC(=O)[C@@H]1CCC(=O)NCCCCC(=O)N[C@H]2CSSC[C@H](NC(=O)[C@H](CCC(N)=O)NC(=O)[C@H](Cc3c[nH]c4ccccc34)NC(=O)[C@H]([C@@H](C)O)NC(=O)[C@H](CC(N)=O)NC2=O)C(=O)N[C@@H](Cc2ccc(OCCN(C)C)cc2)C(=O)N[C@@H](Cc2ccc3ccccc3c2)C(=O)N[C@@](C)(CC(C)C)C(=O)N1)C(N)=O [compound 10] ([Ava]CNTWQCY(Me2NCH2CH2)[2Nal][αMeL]EN[dL]-NH2; disulfide 2-7; lactam N-11)	0.58 nM	77%	< 10 µg/mL	70 µg/mL (≈ 40.1 µM)	10 µg/mL (≈ 5.72 µM)	< 10 µg/mL	25.8 nM	6.7%	0.1%	0.4%
